Assay results: patent US9592294B2, “Polyalkoxylated alcohols as excipients for pharmaceutical compositions” (Dow Global Technologies LLC, priority 2013, dated 2017)

Columns and labels:
[1] = phosphate buffer pH 7.0, terpene alcohol ethoxylates 20 wt. %, versus buffer alone; cited from earlier work
[2] = Turbidity of wet-milled reference drug suspensions without excipient; type: physicochemical; settings: 26 mg/L Probucol, assuming linear relationship between undissolved drug and turbidity
Procedure: Moreover, wet-milled drug suspensions were analyzed as reference samples to determine the turbidity of the drugs in the absence of excipients. […] 78.6 g of yttrium-stabilized zirconia grinding beads (YTZ from Tosoh Corp., diameter: 0.5 mm) were provided in a 50 mL plastic bottle and 10.0 g deionized water and 0.54 g of the respective drug were added. In the case of Probucol, a dispersant, Daxad 19LS (from Hampshire Chem. Corp.), was added in an amount corresponding to 1 wt. % of the mass of Probucol to counteract coating of the milling beads by the drug. The resulting mixture was placed on a rotating ball mill for 24 h. Subsequently 11.06 g of deionized water were added, the suspension was shaken extensively and then separated from the milling beads. An aliquot of 0.20 g of this suspension was further diluted with 49.80 g of deionized water to yield a suspension having a nominal drug concentration of 0.01 wt. %, which was then analyzed for its turbidity using a Nepheloskan Ascent instrument from ThermoLabsystem. […] Table 5 summarizes the measured turbidity of the wet milled reference drug suspensions along with the average particle size of the suspended drug particles measured using a 90 Plus Particle Size Analyzer instrument from Brookhaven Instruments Corp. and literature values for the aqueous solubility of the drugs.

| Turbidity calculated for a Probucol suspension [2] | SMILES | Increase of saturation drug concentration (factor) [1] |
| --- | --- | --- |
| – | Nc1ccc(S(=O)(=O)Nc2nccs2)cc1 [sulfathiazole] | about 14 |
| ~24 RNU | CC(C)(Sc1cc(C(C)(C)C)c(O)c(C(C)(C)C)c1)Sc1cc(C(C)(C)C)c(O)c(C(C)(C)C)c1 [Probucol] | – |
